# Measurements: patent US12103939B2, “Solid pharmaceutical gold-based composition” (KING FAHD UNIVERSITY OF PETROLEUM AND MINERALS, priority 2019, dated 2024)
# Assays:
# [1] = test system: PC3 cells; test: Double-stranded DNA breaks (histone H2A.X phosphorylation); assay type: cell-based, human; details: PC3, 24 h
# Description: The presence of double-stranded DNA breaks was assessed 24 h after treatment with C6 by fixing and permeabilizing cells with Fix & Perm medium A and B (Invitrogen) and staining with FITC anti-H2A.X Phospho (Ser139) Antibody (BioLegend, San Diego, USA). Stained cells were evaluated by flow cytometry.
# [2] = test system: PC3 cells; test: In vitro scratch assay (cell migration); assay type: cell-based, human; details: PC3, 3 h pretreatment with C6 (IC50), 36 h after scratch; control about 10%
# Description: Cell migration was assessed using the in vitro scratch assay. Briefly, cells were grown to confluence and then treated with C6 (IC50). After 3 h, monolayers were washed twice with PBS, scraped with a pipette tip to create a “wound” in the monolayer, and washed again. Culture medium with 2% (not 10%) FBS was added and the cells were cultured for 36 h. Wounds were photographed every 12 h using an inverted microscope (EclipseTS/100, Nikon) at magnification 4×. Migration was assessed by measuring the cell-free area (in pixels) with ImageJ tool software after 12, 24 and 36 h.
# [3] = test system: PC3 cell xenografts; test: Human prostate tumor xenograft experiment; assay type: in vivo, female athymic nude mice
# Description: Animal experiments were approved by the Italian Ministry of Health (no. 671/2015/PR). Ten 4-week-old female athymic nu/nu (nude) mice were purchased from Envigo. PC3 cells (3×10^6 in a 0.1 mL solution of Matrigel 1:3 in PBS) were inoculated subcutaneously into the right flank of each mouse. Body weight and tumors were measured three times a week, and tumor volumes were calculated according to the formula: (width^2×length×3.14)/6. When tumors reached a volume of ca. 120 mm^3, mice were divided into two groups of five animals each. Mice were treated every other day with an intratumoral injection of 2.5 mg/kg C6 or an equal volume of vehicle (10% DMSO, 20% Cremophor Sigma-Aldrich, 70% PBS). Mice were killed on day 32 when control tumors had reached about 1300 mm^3.
smiles,measurement,setting,value
"C[N+](C)=C1[S][Au-]2([S]1)[n+]1ccc[n+]3c1-c1[n+]2ccc[n+]1[Au-]31[S]C(=[N+](C)C)[S]1.[Cl-].[Cl-].[Cl-].[Cl-] [C6, [Au2(BPM)(DMDTC)2]Cl4]",double-stranded DNA breaks (phosphorylation of histone H2A.X),[1],increase in phosphorylation of histone H2A.X
same,remaining uncovered area in scratch assay,[2],about 40%
same,inhibitory effect on tumor growth,"[3]; day 32, 2.5 mg/kg intratumoral every other day, vs vehicle",71%
same,mean tumor volume,"[3]; day 32, 2.5 mg/kg intratumoral every other day, control 1327 mm^3",385 mm^3
same,weight of the animals,"[3]; xenografted mice, 2.5 mg/kg intratumoral",did not affect the weight of the animals
